Measurements as given in patent US5663417A, “Carbocyclic sulfonamides” (Ono Pharmaceutical Co., Ltd., priority 1993, dated 1997).

Target: prostaglandin E2 receptor
Assay: inhibition of [^3 H]-PGE2 receptor binding in rat uterus membrane fraction
Conditions: Table I; 5 nM [^3 H]-PGE2, rat uterus crude membrane fraction, pH 6.0, 1 hour at room temperature; read-out: IC50, inhibitory effects of PGE2 receptor binding in rat
Method: (i) The measurement of the inhibition of [^3 H]-PGE2 receptor binding
The standard assay mixture contained 5 nM [^3 H]-PGE2 (50 μl), test compounds (50 μl) and crude membrane fraction obtained from rat uterus (1.2 mg protein/ml, 100 μl) in a final volume of 200 μl (10 mM potassium phosphate pH 6.0, 0.1M NaCl (buffer A)). After incubation for 1 hour at room temperature, the reaction was stopped by the addition of 3 ml of ice-cold buffer A, after which the mixture was rapidly filtered through a Whatman GF/B glass filter. The radioactivity associated with the filter was measured in ACS II (Amarsham) by liquid scintillation counting. Percent inhibition of specific [^3 H]-PGE2 binding or IC50 value, the concentration required to compete with ^3 H-PGE2 receptor binding by 50% were calculated.

Compound	IC50
O=C(O)CCC/C=C\CC1CCCCC1NS(=O)(=O)c1ccc(Br)cc1 (stereo not drawn) [5 (e), 7-[2-(4-bromophenylsulfonylamino)cyclohexyl]-5Z-heptenoic acid]	60 nM
O=C(O)CCCC=CC1C2C=CC(C2)C1CNS(=O)(=O)c1ccc(Br)cc1 (stereo not drawn) [U.S. Pat. No. 5168101 1 (bb)]	820 nM
O=C(O)CCC/C=C\[C@@H]1CC[C@H](NS(=O)(=O)c2ccc(Br)cc2)C1 [U.S. Pat. No. 5168101 1 (i)]	2400 nM
CC1(C)[C@H]2C[C@H](NS(=O)(=O)CCc3ccccc3)[C@@H](C/C=C\CCCC(=O)O)[C@@H]1C2 [3 (m), 7-[(1S,2S,3S,5R)-3-(2-phenylethyl)sulfonylamino-6,6-dimethylbicyclo[3.1.1]heptan-2-yl]-5Z-heptenoic acid]	5.4 nM
CC1(C)[C@H]2C[C@H](NS(=O)(=O)c3ccc4ccccc4c3)[C@@H](C/C=C\CCCC(=O)O)[C@@H]1C2 [3 (i), 7-[(1S,2S,3S,5R)-3-(2-naphtyl)sulfonylamino-6,6-dimethylbicyclo[3.1.1]heptan-2-yl]-5Z-heptenoic]	90 nM
CC1(C)[C@H]2C[C@H](NS(=O)(=O)CCC3CCCCC3)[C@@H](C/C=C\CCCC(=O)O)[C@@H]1C2 [3 (n), 7-[(1S,2S,3S,5R)-3-(2-cyclohexylethyl)sulfonylamino-6,6-dimethylbicyclo[3.1.1]heptan-2-yl]-5Z-heptenoic acid]	120 nM
CCCCCCCCS(=O)(=O)N[C@H]1C[C@H]2C[C@@H]([C@@H]1C/C=C\CCCC(=O)O)C2(C)C [3 (l), 7-[(1S,2S,3S,5R)-3-octylsulfonylamino-6,6-dimethylbicyclo[3.1.1]heptan-2-yl]-5Z-heptenoic acid]	360 nM
O=C(O)CCC/C=C\CC1CCCCC1NS(=O)(=O)c1ccc(Br)cc1 (stereo not drawn) [5 (f), 7-[2-(4-bromophenylsulfonylamino)cyclohexyl]-5Z-heptenoic acid]	5000 nM
COc1ccc(S(=O)(=O)N[C@H]2C[C@H]3C[C@@H]([C@@H]2C/C=C\CCCC(=O)O)C3(C)C)cc1 [3 (d), 7-[(1S,2S,3S,5R)-3-(4-methoxyphenyl)sulfonylamino-6,6-dimethylbicyclo[3.1.1]heptan-2-yl]-5Z-heptenoic acid]	820 nM
O=C(O)CCC/C=C\[C@@H]1[C@H]2CC[C@H](C2)[C@H]1CNS(=O)(=O)c1ccc(Br)cc1 [U.S. Pat. No. 5168101 1 (y), 6-[(1S, 2R, 3R, 4R)-3-(4-bromophenylsulfonylaminomethyl)bicyclo[2.2.1]heptan-2-yl]-5Z-hexenoic acid]	620 nM
CC1(C)[C@H]2C[C@H](NS(=O)(=O)c3ccc(F)cc3)[C@@H](C/C=C\CCCC(=O)O)[C@@H]1C2 [3 (e), 7-[(1S,2S,3S,5R)-3-(4-fluorophenyl)sulfonylamino-6,6-imethylbicyclo[3.1.1]heptan-2-yl]-5Z-heptenoic]	2600 nM
O=C(O)CCC/C=C\C1CC2CC(NS(=O)(=O)c3ccc(Br)cc3)C1C2 (stereo not drawn) [U.S. Pat. No. 5168101 1 (b)]	3500 nM
CC1(C)[C@H]2C[C@H](NS(=O)(=O)c3ccc(Cl)cc3)[C@@H](C/C=C\CCCC(=O)O)[C@@H]1C2 [3 (f), 7-[(1S,2S,3S,5R)-3-(4-chlorophenyl)sulfonylamino-6,6-imethylbicyclo[3.1.1]heptan-2-yl]-5Z-heptenoic]	750 nM

Results, then the compound that gave them:

IC50	Compound
3400 nM	Cc1ccc(S(=O)(=O)N[C@H]2[C@H]3CC[C@H](C3)[C@@H]2C/C=C\CCCC(=O)O)cc1 [Example 4, 7-[(1R,2S,3S,4S)-3-tosylaminobicyclo[2.2.1]heptan-2-yl]-5Z-heptenoic acid]
500 nM	O=C(O)CCC/C=C\[C@@H]1CCC[C@H](NS(=O)(=O)c2ccc(Br)cc2)C1 (relative stereo) [U.S. Pat. No. 5168101 1 (m)]
6500 nM	O=C(O)CCCC=CC1C2CCC(C2)C1CNS(=O)(=O)c1ccc(Br)cc1 [5 (i), 6-[(1S,2S,3S,4R)-3-(4-bromophenylsulfonylaminomethyl)bicyclo[2.2.1]heptan-2-yl]-5Z-hexenoic acid]
5700 nM	Cc1ccc(S(=O)(=O)N[C@H]2[C@H]3CC[C@H](C3)[C@@H]2C/C=C\CCCC(=O)O)cc1 (relative stereo) [5 (c), 7-[(1R*,2S*,3S*,4S*)-3-tosylaminobicyclo[2.2.1]heptan-2-yl]-5Z-heptenoic acid]
2100 nM	Cc1ccc(S(=O)(=O)N[C@H]2C3CCC(CC3)[C@@H]2C/C=C\CCCC(=O)O)cc1 [5 (d), 7-[(2S,3S)-3-tosylaminobicyclo[2.2.2]octan-2-yl]-5Z-heptenoic acid]
8000 nM	Cc1ccc(S(=O)(=O)NCC2CCCC2/C=C\CCCC(=O)O)cc1 (stereo not drawn)
200 nM	O=C(O)CCC/C=C\C[C@H]1CCC[C@@H]1NS(=O)(=O)c1ccc(Br)cc1 (relative stereo) [5 (h), 7-[(1R*,2S*)-2-(4-bromophenylsulfonylamino)cyclopentyl]-5Z-heptenoic acid]
1600 nM	Cc1ccc(S(=O)(=O)NCC2C3CCC(C3)C2C=CCCCC(=O)O)cc1 (stereo not drawn) [U.S. Pat. No. 5168101 1 (x)]
3400 nM	Cc1ccc(S(=O)(=O)NC2C3CCC(C3)C2C/C=C\CCCC(=O)O)cc1 (racemic) [5 (b), a mixture of 7-[(1R,2S,3S, 4S)-3-tosylaminobicyclo[2.2.1]heptan-2-yl]-5Z-heptenoic acid and an isomer of (1S, 2S,3S,4R)]
1200 nM	O=C(O)CCC/C=C\C1CCCCC1CNS(=O)(=O)c1ccc(Br)cc1 (stereo not drawn) [U.S. Pat. No. 5168101 1 (t)]

Same assay, conditions: Table II; 5 nM [^3 H]-PGE2, rat uterus crude membrane fraction, pH 6.0, 1 hour at room temperature; read-out: IC50, inhibitory effects of PGE2 receptor binding in rat

IC50	Compound
17 nM	O=C(O)CCC/C=C\[C@@H]1[C@H]2CC[C@H](C2)[C@H]1CNS(=O)(=O)/C=C/c1ccccc1 [6 (18), 6-[(1S, 2S, 3R, 4R)-3-(2-phenylvinylsulfonylaminomethyl)bicyclo[2.2.1]heptan-2-yl]-5Z-hexenoic acid]
< 10 nM	CC1(C)[C@H]2C[C@H](NS(=O)(=O)/C=C/c3ccccc3)[C@@H](C/C=C\CCCC(=O)O)[C@@H]1C2 [6 (12), 7-[(1S, 2S, 3S, 5R)-3-(2-phenylvinylsulfonylamino)-6,6-dimethylbicyclo[3.1.1]heptan-2-yl]-5Z-heptenoic acid]
260 nM	CC1(C)[C@H]2C[C@H](NS(=O)(=O)C=C(c3ccccc3)c3ccccc3)[C@@H](C/C=C\CCCC(=O)O)[C@@H]1C2 [Example 9, 7-[(1S,2S,3S,5R)-3-(2,2-diphenylvinylsulfonylamino)-6,6-dimethylbicyclo[3.1.1]heptan-2-yl]-5Z-heptenoic acid]
38 nM	CC1(C)[C@H]2C[C@H](NS(=O)(=O)/C=C/c3ccccc3)[C@@H](C/C=C/CCCC(=O)O)[C@@H]1C2 [6 (26), 7-[(1S, 2S, 3S, 5R)-3-(2-phenylvinylsulfonylamino)-6,6-dimethylbicyclo [3.1.1]heptan-2-yl]-5E-heptenoic acid]
230 nM	O=C(O)CCC/C=C\C[C@H]1CCCC[C@@H]1NS(=O)(=O)/C=C/c1ccccc1 (relative stereo) [6 (19), 7-[(1R*, 2S*)-2-(2-phenylvinylsulfonylamino)cyclohexyl]-5Z-heptenoic]
3.6 nM	CC1(C)[C@H]2C[C@H](NS(=O)(=O)/C=C/c3ccc(F)cc3)[C@@H](C/C=C\CCCC(=O)O)[C@@H]1C2 [6 (2), 7-[(1S, 2S, 3S, 5R)-3-[2-(4-fluorophenyl)vinylsulfonylamino]-6,6-dimethylbicyclo[3.1.1]heptan-2-yl]-5Z-heptenoic acid]
600 nM	O=C(O)CCC/C=C\[C@@H]1CCC[C@@H](NS(=O)(=O)/C=C/c2ccccc2)C1 (relative stereo) [6 (21), 6-[(1R*, 3R*)-3-(2-phenylvinylsulfonylamino)cyclohexyl]-5Z-hexenoic]
1800 nM	O=C(O)CCC/C=C\[C@H]1CC[C@@H](NS(=O)(=O)/C=C/c2ccccc2)C1 [6 (22), 6-[(1S, 3R)-3-(2-phenylvinylsulfonyl-amino)cyclopentyl]-5Z-hexenoic]

Tested on: not listed separately
Assay: acute toxicity (LD50) in mouse by oral administration
Conditions: in vivo
Method: For example, the acute toxicity (LD50) in mouse of 6-[(1S, 2R, 3R, 4R)-3-(4-bromophenylsulfonylaminomethyl)bicyclo[2.2.1]heptan-2-yl]-5Z-hexenoic acid (it is described as example 1(y) in specification of the U.S. Pat. No. 5,168,101.) was more than 300 mg/kg by oral administration.

Compound	LD50
O=C(O)CCC/C=C\[C@@H]1[C@H]2CC[C@H](C2)[C@H]1CNS(=O)(=O)c1ccc(Br)cc1 [U.S. Pat. No. 5168101 1 (y), 6-[(1S, 2R, 3R, 4R)-3-(4-bromophenylsulfonylaminomethyl)bicyclo[2.2.1]heptan-2-yl]-5Z-hexenoic acid]	> 300 mg/kg

Tested on: contraction of rat uterus induced by PGE2
Assay: inhibitory effects of compounds on contraction of rat uterus induced by PGE2
Set-up: species or system rat (Sprague Dawley)
Conditions: contraction induced by 0.3 μM PGE2; isolated pseudo pregnant rat uterus strips, 28° C.; compound concentration not given
Method: (ii) The inhibitory effects of compounds on contraction of rat uterus induced by PGE2
Pseudo pregnant rat uterus (Sprague Dawley, 200-300 g, induced by oestradiol […] s.c. 18-24 hours before experiment) was isolated and longitudinal strips of 1-1.5 cm were set up in Locke-Ringer solution containing low Ca^2+, aerated with mixed gas (oxygen 95%+carbon dioxide 5%) at 28° C.

Compound	inhibition of the contraction of rat uterus induced by PGE2
CC1(C)[C@H]2C[C@H](NS(=O)(=O)/C=C/c3ccccc3)[C@@H](C/C=C\CCCC(=O)O)[C@@H]1C2 [6 (12), 7-[(1S, 2S, 3S, 5R)-3-(2-phenylvinylsulfonylamino)-6,6-dimethylbicyclo[3.1.1]heptan-2-yl]-5Z-heptenoic acid]	completely inhibited
